Measurements from US20140106967A1, “AUXIN PLANT GROWTH REGULATORS” (The Governors of The University of Alberta, priority 2011, published 2014).

Tests used:
[1] = tested on: 'Harvest HRS'-Spring hard-red wheat; assay: Wheat growth chamber experiment, with or without heat stress (Tables W2, W3); format: in vivo, Triticum aestivum
Experimental: In another experiment, seeds of the wheat cultivar Harvest HRS were planted at an approximate depth of 1.5 cm in 5 inch square plastic pots (6 inch pot depth; 3 seeds per pot) in 1:1 Sunshine #4 potting mix (Sun Gro Horticulture, Vancouver, Canada) and sand. The seedlings were thinned to one seedling per pot approximately 2 weeks after seeding. Plants were grown in a Conviron growth chamber maintained at 24° C. light/20° C. dark (16 hours light/8 hours dark photoperiod; using 54W/835/HO high fluorescent bulbs [Phillips, Holland] with an average photon flux density of 540 μE m^−2s^−2. Plant were fertilized with 175 ppm 20-20-20 (N:P:K) every 3 to 4 days.
Aqueous solutions of 4-ME-IAA at 1×10^−6, 1×10^−5, or 1×10^−4 M in 0.1% (v/v) Tween 80 or a control solution (0.1% [v/v] Tween 80) were applied (sprayed on plant to cover) when the majority of the plants were at the BBCH scale 45 developmental stage (late boot stage where the flag leaf sheath [boot] is swollen with the inflorescence, but the inflorescence has not emerged from the boot). The experiment was arranged in a completely randomized design within the growth chamber.
The heat stress treatment was imposed by moving plants to receive the heat stress to a different growth chamber ((heat stress chamber) for 6 days. In the heat stress chamber, the light cycle began at 7:00 hours at a 24° C. air temperature. The heat treatment began at 11:00 hours (33° C. air temperature) and was maintained for 6 hours (until 17:00 hours). Following the heat treatment, the remainder of the light cycle was maintained at a 24° C. air temperature. The dark cycle (began at 23:00 hours) was maintained at 20° C. The photoperiod was 16 h light/8 h dark at an average photon flux density of 492 μE m^−2s^−2 using 54W/835/HO high fluorescent bulbs (Phillips, Holland). After 6 days, the heat stress-treated plants were returned to the original growth chamber maintained at non-heat stress conditions to develop to maturity.

[2] = tested on: Pisum sativum L. cv. Carneval; assay: Growth chamber pea study: one 4-ME-IAA spray, heat-stressed and non-stressed plants (Tables 1, 2); format: in vivo; parameters: more pods per plant with mature seeds than control / increase in number of seeds per plant vs control / increase in total seed weight per plant vs control: tested at 1 µM
Description: ‘Carneval’ (Pisum sativum L.) was chosen as a model cultivar as a semi-dwarf (semi-leafless; an field pea which is used extensively in crop agriculture. ‘Carneval’ has white flowers and yellow cotyledons at maturity, begins to flower at about the 15 to 17th node under long day conditions. Seeds of ‘Carneval’ were planted at an approximate depth of 2.5 cm in 3-L plastic pots (4 seeds per pot and thinned to 2 plants per pot after approximately 2 weeks) in 1:1 Sunshine #4 potting mix (Sun Gro Horticulture, Vancouver, Canada) and sand. Approximately 15 cc of slow-release fertilizer (14-14-14) was added to the potting mix at planting. The experiment was arranged in a completely randomized design and grown at the University of Alberta in a growth chamber set at 19° C./17° C. (day/night) with a 16/8-h photoperiod under cool-white fluorescent lights (F54/15/835/HO high fluorescent bulbs, Phillips, Holland; 350 μE m^2 s^−2, measured with a LI-188 photometer, Li-Cor Biosciences, Lincoln, Nebr.). For the heat stress treatment, plants were placed in a separate growth chamber with a 16/8-h photoperiod under cool-white fluorescent lights (F54/15/835/HO high fluorescent bulbs, Phillips, Holland) for 4 days where the temperature was cycled over a 24 hr period as follows: 34° C. air temperature for 6 hours per day (between 11:00 and 17:00 hrs) for 4 days during the light cycle; the remainder of the light cycle was maintained at a 22° C. air temperature; the dark cycle was maintained at 19° C. After the 4 day heat treatment, the plants were returned to the same growth chamber they were originally grown in, where they were taken to maturity. One application of 4-ME-IAA (1 μM in 0.1% Tween 80) or 0.1% Tween 80 (control) was applied as a spray to the entire plant to cover when the first flowering node of the main stem was at the flower bud or full bloom stage. For the heat stress treatment, the hormone or control application was completed 16 hrs prior to the initiation of the first heat-stress cycle.

[3] = 1×10^−4 M, 6 days of heat stress (33° C. 6 h/day)
[4] = 1×10^−5 M, 6 days of heat stress (33° C. 6 h/day)
[5] = 1×10^−6 M, 6 days of heat stress (33° C. 6 h/day)
[6] = 1 μM, non-heat stressed, at plant maturity
[7] = non-stressed, at plant maturity

Structure (SMILES): Cc1cccc2[nH]cc(CC(=O)O)c12 [4-ME-IAA, 4-methyl-indole-3-acetic acid]
- Length of spike peduncle [1, 3]: 70 ± 10 mm
- Number of spikes per plant [1, 3]: 25 ± 3
- Seed number per plant [1, 3]: 130 ± 23
- Seed number per spike [1, 3]: 5 ± 1
- Seed weight per plant [1, 3]: 4.08 ± 0.67 g
- increase in seed number per plant vs control ([1]; 1×10^−4 M, heat stress): 73%
- increase in seed weight per plant vs control ([1]; 1×10^−4 M, heat stress): 72%
- Length of spike peduncle ([1]; 1×10^−4 M, non-heat stress): 62 ± 5 mm
- Number of spikes per plant ([1]; 1×10^−4 M, non-heat stress): 25 ± 1
- Seed number per plant ([1]; 1×10^−4 M, non-heat stress): 163 ± 32
- Seed number per spike ([1]; 1×10^−4 M, non-heat stress): 7 ± 1
- Seed weight per plant ([1]; 1×10^−4 M, non-heat stress): 4.87 ± 0.95 g
- Length of spike peduncle [1, 4]: 57 ± 5 mm
- Number of spikes per plant [1, 4]: 24 ± 4
- Seed number per plant [1, 4]: 57 ± 18
- Seed number per spike [1, 4]: 3 ± 1
- Seed weight per plant [1, 4]: 1.83 ± 0.57 g
- Length of spike peduncle ([1]; 1×10^−5 M, non-heat stress): 82 ± 7 mm
- Number of spikes per plant ([1]; 1×10^−5 M, non-heat stress): 22 ± 3
- Seed number per plant ([1]; 1×10^−5 M, non-heat stress): 256 ± 42
- Seed number per spike ([1]; 1×10^−5 M, non-heat stress): 12 ± 1
- Seed weight per plant ([1]; 1×10^−5 M, non-heat stress): 7.56 ± 1.36 g
- Length of spike peduncle [1, 5]: 72 ± 7 mm
- Number of spikes per plant [1, 5]: 28 ± 3
- Seed number per plant [1, 5]: 151 ± 43
- Seed number per spike [1, 5]: 5 ± 1
- Seed weight per plant [1, 5]: 4.49 ± 1.25 g
- increase in number of floral spikes per plant vs control ([1]; 1×10^−6 M, heat stress): 40%
- increase in seed number per plant vs control ([1]; 1×10^−6 M, heat stress): 101%
- increase in seed weight per plant vs control ([1]; 1×10^−6 M, heat stress): 90%
- Length of spike peduncle ([1]; 1×10^−6 M, non-heat stress): 63 ± 6 mm
- Number of spikes per plant ([1]; 1×10^−6 M, non-heat stress): 24 ± 3
- Seed number per plant ([1]; 1×10^−6 M, non-heat stress): 254 ± 81
- Seed number per spike ([1]; 1×10^−6 M, non-heat stress): 10 ± 2
- Seed weight per plant ([1]; 1×10^−6 M, non-heat stress): 8.17 ± 2.66 g
- plant maturation (dry-down), FIG. 3 ([2]; 1 μM in 0.1% Tween 80, 34 days after spray): stimulated maturation of the plant
- Number of pods per plant [2, 6]: 14.9 ± 0.6
- Number of seeds per plant [2, 6]: 57.6 ± 3.5
- Number of stems/stems with pods per plant [2, 6]: 1.1 ± 0.1
- Total seed weight per plant [2, 6]: 13.56 ± 0.64 g
- Weight per seed [2, 6]: 0.24 ± 0.01 g
- Number of pods with developing seeds per plant ([2]; Heat-stressed (34° C. 6 h/day, 4 days), 1 μM in 0.1% Tween 80, 16 hr before heat, 9 to 10 days after removal from heat treatment): 10.6 ± 0.8
- Number of pods with developing seeds per plant ([2]; Non-stressed (19° C./17° C.), 1 μM in 0.1% Tween 80, 9 to 10 days): 15.4 ± 0.6
- increase in pod retention vs control ([2]; heat-stress conditions, 9-10 days after application): 112%
- pod retention, FIG. 2 ([2]; non-stressed and heat-stress conditions, 9-10 days after application): increased pod retention
- increase in pod retention vs control ([2]; non-stressed conditions, 9-10 days after application): 41%
- Weight per seed [2, 7]: 240 mg per seed
- increase in number of seeds per plant vs control [2, 7]: 39%
- increase in total seed weight per plant vs control [2, 7]: 23%
- more pods per plant with mature seeds than control [2, 7]: 42%
